Data on 3 compounds can be found in publication PMC8097466, “In Vivo Targeting of Escherichia coli with Vancomycin-Arginine” (Antimicrobial Agents and Chemotherapy, 2021).

Usually thermodynamic solubility stands for solubility found after equilibrating the solid with the medium.

In one data set the test system is S. agalactiae. In words: MIC determination in alignment with CLSI guidelines. The class given is cell-based. The following applies: Streptococcus agalactiae.
In a further data set the test system is S. pneumoniae. The description is as above. The class given is cell-based. The following applies: Streptococcus pneumoniae.
Data set [1] can be described thus: Plasma protein binding, mouse. The class given is in vitro ADME.
The test system of the next data set is human erythrocytes. In words: Red blood cell lysis. The note with it: fetal bovine serum-deficient media. From the text:
(§1) Identity was confirmed by ^1H nuclear magnetic resonance and time of flight mass spectrometry, and HCl content was quantified by ion-exchange chromatography.

The next data set concerns HepG2. In words: HepG2 cell cytotoxicity. The following applies: fetal bovine serum-deficient media.
Source text: as §1

For data set [2], the system named is human renal proximal tubular epithelial cells. In words: hRPTEC biomarkers cytotoxicity. The following applies: primary hRPTEC; cell count, nuclear size, DNA structure, mitochondrial mass, mitochondrial membrane potential, phospholipidosis, glutathione content; fetal bovine serum-deficient media.
Source text: as §1

A further data set deals with E. coli ATCC 25922. In words: 9-h thigh muscle infection model in neutropenic CD-1 mice. In kind it is in vivo, Escherichia coli. On the procedure:
(§2) Using a screening-based strategy, preliminary proof-of-concept studies with V-r employed an abbreviated 9-h thigh muscle infection model in male CD-1 mice rendered neutropenic ([21]). To that end, an E. coli ATCC 25922 isolate was inoculated at 9.7 × 10^4 CFU into both thigh muscles per mouse (n = 5 per experimental group). V-r was administered s.c. every 2 h (110 to 880 mg/kg total dose) starting 1 h postinfection. At 9 h, thigh homogenates were prepared, and CFU were enumerated after culture on CLED (cystine-, lactose-, and electrolyte-deficient) agar. […] In a 24-h thigh muscle infection model, E. coli UTI89 was inoculated at 7.8 × 10^4 CFU into one thigh muscle per mouse (n = 5 to 8 per group) and treated with V-r (total dose, 200 to […]) using an every-6-h dosing regimen from 1 h postinfection. […] Overall, V-r caused an ∼4 to 7.5 log10 reduction in bacterial burden, compared with vehicle control, over the entire dose range.

The subject of a further data set is E. coli UTI89. In words: 24-h thigh muscle infection model in neutropenic CD-1 mice. The class given is in vivo, Escherichia coli. The following applies: for Log10 (group geometric mean ± SD CFU/g): n = 5 to 8. On the procedure: as §2
Data set [3] has as its system A. baumannii.
Data set [4] in a line: Plasma protein binding, human.
Data set [5] is described as follows: Thermodynamic solubility in saline.
The next data set has as its system E. coli. In words: microbe, parasite or virus in culture. The note with it: Escherichia coli.
Data set [6] concerns A. baumannii. In words: microbe, parasite or virus in culture. The following applies: Acinetobacter baumannii.
Data set [7] is described as follows: Plasma pharmacokinetics after s.c. administration. Also on record: species or system CD-1 mice. The following applies: mouse, in vivo, sc. On the procedure: Plasma pharmacokinetics (PK) of V-r after subcutaneous (s.c.) administration (20 and 121 mg/kg) was determined in naive male CD-1 mice (n = 3/group) using liquid chromatography-tandem mass spectrometry for analysis with a lower limit of quantitation of 5 ng/ml (Table 3).

Setting [8] is: total dose over 24 h 1,272 mg/kg.

In brackets after ≈: the same amount, converted by molar mass. Read-outs that look alike come from different tables or passages of the source.

As for `CN[C@H](CC(C)C)C(=O)N[C@H]1C(=O)N[C@@H](CC(N)=O)C(=O)N[C@H]2C(=O)N[C@H]3C(=O)N[C@H](C(=O)N[C@H](C(=O)O)c4cc(O)cc(O)c4-c4cc3ccc4O)[C@H](O)c3ccc(c(Cl)c3)Oc3cc2cc(c3O[C@@H]2O[C@H](CO)[C@@H](O)[C@H](O)[C@H]2O[C@H]2C[C@](C)(N)[C@H](O)[C@H](C)O2)Oc2ccc(cc2Cl)[C@H]1O` [Vancomycin], the MIC against S. agalactiae (strain B057, clinical isolate (northwest UK)) turned out to be 0.5 µg/mL (≈ 0.345 µM); in the data set on S. agalactiae (strain B063, clinical isolate (northwest UK)), 1 µg/mL (≈ 0.69 µM); against S. pneumoniae, 0.5 µg/mL (≈ 0.345 µM); against S. pneumoniae (ATCC49619) it was 0.5 µg/mL (≈ 0.345 µM); in the data set on A. baumannii [3] (strain B803, clinical isolate (UK) 2016), 128 µg/mL (≈ 88.3 µM); with A. baumannii [3] (strain GS2AB1, multiresistant clinical isolate (southern Europe) 2017), 128 µg/mL (≈ 88.3 µM). Further, the MIC against A. baumannii [3] (strain Naval-81, clinical isolate (USA) 2006) stood at 128 µg/mL (≈ 88.3 µM); against E. coli (ATCC25922, strain ATCC 25922, CLSI susceptible reference strain), 128 µg/mL (≈ 88.3 µM); in the data set with E. coli (ATCCBAA2340, strain ATCC BAA-2340, blaKPC, Ambler A), 128 µg/mL (≈ 88.3 µM); in the data set on E. coli (ATCCBAA2469, strain ATCC BAA-2469, blaNDM-1, Ambler B) it was 128 µg/mL (≈ 88.3 µM); with E. coli (BW25113, strain BW25113, parent strain of BW25113ΔacrB::kan mutant) it was 128 µg/mL (≈ 88.3 µM); against E. coli (NCTC13441, strain NCTC 13441, uropathogenic ST131, blaCTX-M-15, blaOXA-1, blaTEM-1, Ambler A, D) it was 128 µg/mL (≈ 88.3 µM). Moreover, the MIC in the data set on E. coli (NCTC13462, strain NCTC 13462, blaCTX-M-2, Ambler A) was 128 µg/mL (≈ 88.3 µM); against E. coli (NCTC13846, strain NCTC 13846, clinical isolate, bacteremia, mcr-1), 64 µg/mL (≈ 44.2 µM); with E. coli (read-out: MICs, all E. coli and A. baumannii strains tested), 64 to 256 µg/mL (≈ 44.2 to 177 µM); in the data set with E. coli (strain AR055, blaNDM-1, blaCMY-6, blaOXA-1, Ambler B, C, D), 128 µg/mL (≈ 88.3 µM); against E. coli (strain AR089, blaCMY-2, Ambler C), 128 µg/mL (≈ 88.3 µM); against E. coli (strain AR0114, blaTEM-1B, blaKPC-3, Ambler A), 256 µg/mL (≈ 177 µM). The MIC in the data set with E. coli (strain AR0137, blaNDM-6, blaOXA-9, blaCMY-42, blaCTX-M-15, Ambler B) was found to be 128 µg/mL (≈ 88.3 µM); against E. coli (strain AR0150, blaNDM-5, blaTEM-1B, blaCMY-42, Ambler A, B, C), 128 µg/mL (≈ 88.3 µM); in the data set with E. coli (strain AR0346, mcr-1, ESBL, Ambler A), 256 µg/mL (≈ 177 µM); with E. coli (strain AR0349, mcr-1, ESBL, Ambler A), 128 µg/mL (≈ 88.3 µM); in the data set on E. coli (strain AR0350, mcr-1), 128 µg/mL (≈ 88.3 µM); in the data set on E. coli (strain AR0493, mcr-1, ESBL, Ambler A), 256 µg/mL (≈ 177 µM). Also, the MIC with E. coli (strain AR0494, mcr-1) was determined as 128 µg/mL (≈ 88.3 µM); against E. coli (strain B096a, clinical isolate (UK) 2016, AmpC, Ambler C), 128 µg/mL (≈ 88.3 µM); in the data set with E. coli (strain B808, clinical isolate (UK) 2016, blaTEM-1, blaCTX-M-15, Ambler A) it was 256 µg/mL (≈ 177 µM); against E. coli (strain ExPEC H5, clinical isolate (UK)) it was 128 µg/mL (≈ 88.3 µM); against E. coli (strain H4/5, clinical isolate, blaTEM-1, blaCTX-M-15, Ambler A), 256 µg/mL (≈ 177 µM); in the data set with E. coli (strain IR3, clinical isolate, blaNDM-1, Ambler B), 128 µg/mL (≈ 88.3 µM). Also, the MIC against E. coli (strain IR45, clinical isolate, blaNDM-1, Ambler B) is 128 µg/mL (≈ 88.3 µM); against E. coli (strain IR57, clinical isolate, blaNDM-1, Ambler B) it was 256 µg/mL (≈ 177 µM); against E. coli (strain JW0451-2, BW25113ΔacrB::kan, AcrB-deficient efflux pump mutant), 128 µg/mL (≈ 88.3 µM); against E. coli (strain Swiss 2 (AF45), clinical isolate (South Africa) ST101, mcr-1), 128 µg/mL (≈ 88.3 µM); in the data set on E. coli (strain Swiss 13, clinical isolate (France) ST69, mcr-1), 128 µg/mL (≈ 88.3 µM); in the data set on E. coli (strain Swiss 15, clinical isolate (Switzerland) ST446, mcr-1, blaCTX-M, Ambler A), 128 µg/mL (≈ 88.3 µM). For the same compound, the MIC against E. coli (strain UTI89, clinical isolate from patient with acute bladder infection) amounted to 128 µg/mL (≈ 88.3 µM); in the data set on A. baumannii [6], 128 µg/mL (≈ 88.3 µM). In addition, in data set [1], the “PPB (mouse % bound)” value is listed as 50/50 % bound. For the same compound, in the data set with human erythrocytes, the “Red blood cell lysis (CC50)” value is above 750 µM. For the same compound, in the data set on HepG2, the “HepG2 cell cytotoxicity (CC50)” value was above 750 µM. The “hRPTEC biomarkers (CC50)” value in data set [2] is above 100 µM. Moreover, in the data set with E. coli ATCC 25922 (dose equivalent to the highest dose of V-r, 9 h), the “Impact on E. coli burden” value is “failed to significantly impact E. coli burden”. For the same compound, the “Log10 change from vehicle (CFU/g)” value with E. coli ATCC 25922 (total dose over 9 h 800 mg/kg) is −0.51 log10 CFU/g; in the data set with E. coli UTI89 (setting [8]) it was −1.23 log10 CFU/g. In addition, the “Log10 (group geometric mean ± SD CFU/g)” value in the data set with E. coli ATCC 25922 (total dose over 9 h 800 mg/kg, n = 5) is recorded as 6.60 ± 0.66 log10 CFU/g; in the data set with E. coli UTI89 (setting [8]) it was 8.48 ± 1.31 log10 CFU/g. Moreover, the “PPB (human % bound)” value in [4] is listed as 50/50 % bound. The “TD solubility in saline” value in [5] (thermodynamic, in saline) is above 50 mg/mL.

`O=C(O)c1cn(C2CC2)c2cc(N3CCNCC3)c(F)cc2c1=O` [Ciprofloxacin]: in the data set on E. coli UTI89 (24-h model, ciprofloxacin group of Table 5 (20 mg/kg total)), the Reduction from stasis is recorded as 1.4 log10. For the same compound, in the data set with E. coli UTI89 (total dose over 24 h 20 mg/kg), the “Log10 change from vehicle (CFU/g)” value is −6.39 log10 CFU/g and the “Log10 (group geometric mean ± SD CFU/g)” value was 3.32 ± 0.14 log10 CFU/g.

For `CN[C@H](CC(C)C)C(=O)N[C@H]1C(=O)N[C@@H](CC(N)=O)C(=O)N[C@H]2C(=O)N[C@H]3C(=O)N[C@H](C(=O)N[C@H](C(=O)N[C@H](CCCNC(=N)N)C(N)=O)c4cc(O)cc(O)c4-c4cc3ccc4O)[C@H](O)c3ccc(c(Cl)c3)Oc3cc2cc(c3O[C@@H]2O[C@H](CO)[C@@H](O)[C@H](O)[C@H]2O[C@H]2C[C@](C)(N)[C@H](O)[C@H](C)O2)Oc2ccc(cc2Cl)[C@H]1O` [V-r], in data set [7] (20 mg/kg), the Clearance was determined as 7.8 mL/min/kg and the Vd is 0.59 L/kg. For the same compound, in data set [7] (121 mg/kg), the Clearance is 5.4 mL/min/kg and the Vd was found to be 0.60 L/kg. Besides, in data set [5] (saline or isotonic, thermodynamic from solid), the thermodynamic solubility is 373 mg/mL (≈ 232000 µM).
